Common to all, as to test: NCI anticancer screen, dose series, 48 h
In assay [1] the test system is TK-10.
Assay [2] concerns SW-620.
Assay [3] relates to Hs-578T.
For assay [4], the system named is HOP-92.
The test system of assay [5] is OVCAR-3.
Assay [6] deals with NCI-H226.
For assay [7], the system named is A498.
Assay [8] concerns U-251.
Assay [9] concerns Malme-3M.
Assay [10] deals with UACC-62.
Assay [11] has as its system OVCAR-5.
The subject of assay [12] is SN12C.
For assay [13], the system named is SNB-75.
In assay [14] the test system is OVCAR-8.
Assay [15] deals with KM12.
Assay [16] has as its system DU-145.
The test system of assay [17] is SK-MEL-2.
Assay [18] concerns SNB-19.
Assay [19] concerns LOX IMVI.
Assay [20] concerns HCC 2998.

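Assay format: 96-well plates, 48-hour exposure. At the GI50, growth is halved.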 Activity calls are given as the source filed them. Rule as the data show it: active = GI50 up to about 1.1 µM and inactive = higher.

Take `O=C(O)CN1C(=O)CN=C(c2ccccn2)c2cc(Cl)ccc21`: the GI50 in assay [1], in assay [2], in [3], in assay [4], in assay [5] and in assay [6] was > 100 µM (inactive) throughout. In addition, the GI50 in [7], in assay [8], in [9], in assay [10], in [11] and in [12] was > 100 µM (inactive) in each case. Further, the GI50 in [13], in [14], in [15], in assay [16], in [17] and in assay [18] was > 100 µM (inactive) each time. In assay [19], the GI50 is > 100 µM (inactive).

In the case of `O=C(Nc1nc(C23CC4CC(CC(C4)C2)C3)cs1)c1cc2cc(Cl)ccc2oc1=O`, the GI50 in assay [1] is > 100 µM (inactive); in assay [2] it was > 100 µM (inactive); in assay [3] it was 71.1 µM (inactive); in assay [4], > 100 µM (inactive); in [5], > 100 µM (inactive); in assay [6] it was > 100 µM (inactive). The GI50 in [7], in [8], in assay [20], in assay [9], in [11] and in assay [12] was > 100 µM (inactive) throughout. Further, the GI50 in [13], in assay [14], in [15], in [16], in assay [18] and in [19] was > 100 µM (inactive) in each case.

In the case of `CCCCCC(=O)NC(=S)Nc1nnn[nH]1`, the GI50 in assay [1], in [2], in [3], in assay [4], in [5] and in assay [7] was > 100 µM (inactive) each time. Moreover, the GI50 in assay [8], in assay [20], in [9], in [10], in assay [11] and in assay [12] was > 100 µM (inactive) in each case. The GI50 in assay [13], in assay [15], in assay [16], in assay [17], in assay [18] and in assay [19] was > 100 µM (inactive) throughout.

Take `COC(=O)c1c2c(cc3c1CC1(Cc4cc5c(cc4C1)CCC5)C3)CCC2`: the GI50 in assay [1], in [2], in assay [3], in [4], in assay [5] and in [7] was > 100 µM (inactive) each time. For the same molecule, the GI50 in assay [8], in assay [20], in assay [9], in assay [11], in [13] and in [14] was > 100 µM (inactive) in each case. In addition, the GI50 in assay [16], in [17], in assay [18] and in assay [19] was > 100 µM (inactive) each time.

For `C=Cn1c([N+](=O)[O-])cnc1/C=C/c1ccc(C(=O)OCCN2CCOCC2)cc1`, the GI50 in [1] was > 100 µM (inactive); in assay [2], > 100 µM (inactive); in assay [3], 88.1 µM (inactive); in assay [4] it was > 100 µM (inactive); in assay [5] it was > 100 µM (inactive); in [6], > 100 µM (inactive). In addition, the GI50 in [7] was 75.5 µM (inactive); in assay [8], > 100 µM (inactive); in assay [9] it was 61 µM (inactive); in assay [10], > 100 µM (inactive); in [11], > 100 µM (inactive); in assay [12], > 100 µM (inactive). Also, the GI50 in [13], in assay [14], in [15], in assay [16], in assay [17] and in assay [18] was > 100 µM (inactive) in each case. In addition, the GI50 in assay [19] was > 100 µM (inactive).

Consider `OB(O)c1ccccc1C#Cc1ccccc1B(O)O`, for which the GI50 in assay [1] was 17.1 µM (inactive); in [2] it was 20.1 µM (inactive); in assay [3] it was 14.6 µM (inactive); in assay [4] it was 23.3 µM (inactive); in assay [5] it was 17.1 µM (inactive); in assay [7], 3.04 µM (inactive). The GI50 in [8] was 19.2 µM (inactive); in assay [20] it was 17.7 µM (inactive); in [9], 17.1 µM (inactive); in [10] it was 14.5 µM (inactive); in [11] it was 27.4 µM (inactive); in [12], 23.6 µM (inactive). The GI50 in [13] was 19 µM (inactive); in [14], 22.6 µM (inactive); in assay [15], 13.9 µM (inactive); in assay [16], 15.9 µM (inactive); in assay [17], 11.5 µM (inactive); in assay [18], 21.8 µM (inactive). Besides, the GI50 in [19] was 19 µM (inactive).

On to `C/C=C1\CN2CCC34c5ccccc5N(C)C35OCC4(C(=O)OC)C1CC25` (stereo not drawn), for which the GI50 in assay [1] is > 100 µM (inactive); in assay [2], 41.6 µM (inactive); in assay [3], 54.8 µM (inactive); in assay [4], 28.6 µM (inactive); in assay [5], 76.2 µM (inactive); in assay [7], > 100 µM (inactive). In addition, the GI50 is 93.3 µM (inactive) in assay [8]; 14 µM (inactive) in assay [20]; 61 µM (inactive) in assay [10]; > 100 µM (inactive) in assay [11]; 75.7 µM (inactive) in [12]; 99.5 µM (inactive) in [13]. The GI50 in assay [15] is 37.1 µM (inactive); in [16] it was 74.6 µM (inactive); in assay [17], 42.2 µM (inactive); in [18], 59.8 µM (inactive); in assay [19], 14 µM (inactive).

On to `O=C1/C(=C/c2ccccc2)N=C(c2ccccc2)N1n1c(-c2ccccc2)nc2ccccc2c1=O`, for which the GI50 in [1] was > 100 µM (inactive); in [2] it was > 100 µM (inactive); in assay [3] it was 35.2 µM (inactive); in assay [4] it was 97.5 µM (inactive); in assay [5] it was 57.9 µM (inactive); in assay [6], 64 µM (inactive). Further, the GI50 in [7] is 92 µM (inactive); in assay [8], 41.8 µM (inactive); in [20], > 100 µM (inactive); in [9], > 100 µM (inactive); in assay [10], 31 µM (inactive); in assay [11], > 100 µM (inactive). Moreover, the GI50 in assay [12] was > 100 µM (inactive); in assay [13] it was > 100 µM (inactive); in [14], > 100 µM (inactive); in [15], 61.7 µM (inactive); in assay [16], 83 µM (inactive); in assay [18] it was 52.8 µM (inactive). For the same molecule, in [19], the GI50 is 35.6 µM (inactive).

As for `CCOC(=O)c1nc2ccccc2nc1NCc1ccc(OC)c(OC)c1`, the GI50 was 82.4 µM (inactive) in [1]; > 100 µM (inactive) in [2]; 45.9 µM (inactive) in assay [3]; > 100 µM (inactive) in assay [4]; > 100 µM (inactive) in assay [5]; > 100 µM (inactive) in assay [6]. For the same molecule, the GI50 in assay [7], in assay [8], in assay [20], in assay [9], in [10] and in assay [11] was > 100 µM (inactive) throughout. The GI50 in assay [12], in assay [13], in assay [14], in assay [15], in assay [16] and in assay [19] was > 100 µM (inactive) in each case.

Turning to `O=C(O)Cc1cccc2c(=O)c3cccc([N+](=O)[O-])c3oc12`, the GI50 in [1], in [2], in assay [3], in assay [5], in assay [6] and in assay [7] was > 100 µM (inactive) each time. Moreover, the GI50 in [8], in assay [20], in [9], in [10], in assay [11] and in assay [12] was > 100 µM (inactive) throughout. Also, the GI50 in assay [13], in assay [14], in assay [15], in [16], in assay [17] and in [18] was > 100 µM (inactive) throughout. In addition, in assay [19], the GI50 is > 100 µM (inactive).

With `Cc1c2cccc-2c(N(C)C)cc2c1[nH]c1ccccc12`, the GI50 in assay [1] is 4.63 µM (inactive); in assay [2] it was 4.17 µM (inactive); in assay [3], 3.57 µM (inactive); in assay [4], 0.561 µM (active); in assay [5] it was 4.32 µM (inactive); in [6], 5.81 µM (inactive). Further, the GI50 in [7] was 21 µM (inactive); in [8], 1.93 µM (inactive); in assay [9], 3.3 µM (inactive); in assay [11] it was 3.23 µM (inactive); in assay [12], 6.67 µM (inactive); in [14], 3.21 µM (inactive). Besides, the GI50 in assay [15] was 2.74 µM (inactive); in assay [16] it was 14.6 µM (inactive); in assay [18], 9.27 µM (inactive); in assay [19], 3.94 µM (inactive).

(Values after ChEMBL document CHEMBL1201862, “PubChem BioAssay data set” (2004).)
